Source: ChEMBL document CHEMBL1201862, “PubChem BioAssay data set” (2004)
The source made the active and inactive calls.

What was measured:
[1] = viability loss in HeLa cells – cytotoxicity control for MgcRacGAP inhibitor project, dose response (AID 624300); type: functional
[2] = target: T1, Rac GTPase-activating protein 1 (Homo sapiens, UniProt Q9H0H5); assay: blockers of MgcRacGAP-driven Rac1 GTP hydrolysis – biochemical, ADP Hunter fluorescence, primary and confirmatory, confirmation (AID 624330); type: functional
T1 sequence (Q9H0H5 whole entry): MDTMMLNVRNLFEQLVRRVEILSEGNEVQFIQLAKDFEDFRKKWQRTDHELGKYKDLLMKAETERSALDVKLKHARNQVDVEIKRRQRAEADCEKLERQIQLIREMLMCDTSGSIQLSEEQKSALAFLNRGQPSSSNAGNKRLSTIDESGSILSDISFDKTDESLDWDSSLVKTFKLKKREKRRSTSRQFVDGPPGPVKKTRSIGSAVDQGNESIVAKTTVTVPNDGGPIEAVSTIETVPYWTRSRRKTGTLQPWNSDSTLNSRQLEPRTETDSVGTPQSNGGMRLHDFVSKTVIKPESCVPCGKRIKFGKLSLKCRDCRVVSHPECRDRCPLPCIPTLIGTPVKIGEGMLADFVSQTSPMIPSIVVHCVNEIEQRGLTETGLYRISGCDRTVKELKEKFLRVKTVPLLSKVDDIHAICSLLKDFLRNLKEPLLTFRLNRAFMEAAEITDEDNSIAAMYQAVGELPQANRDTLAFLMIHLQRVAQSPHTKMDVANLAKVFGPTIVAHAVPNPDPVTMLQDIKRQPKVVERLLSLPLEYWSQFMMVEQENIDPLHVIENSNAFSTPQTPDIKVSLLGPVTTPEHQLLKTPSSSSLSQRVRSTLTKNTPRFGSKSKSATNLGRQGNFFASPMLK

[3] = target: Melanocortin receptor 4 (Homo sapiens, UniProt P32245); type: functional, cell-based;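 note: Cell-based assay with luminescence read-out, confirmatory dose-response testing for agonist activity of biased ligands at MC4R; human U2OS cells with tagged receptor and beta-arrestin; potency of agonists that increase receptor coupling to beta-arrestin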
Sequence of Melanocortin receptor 4 (P32245 whole entry): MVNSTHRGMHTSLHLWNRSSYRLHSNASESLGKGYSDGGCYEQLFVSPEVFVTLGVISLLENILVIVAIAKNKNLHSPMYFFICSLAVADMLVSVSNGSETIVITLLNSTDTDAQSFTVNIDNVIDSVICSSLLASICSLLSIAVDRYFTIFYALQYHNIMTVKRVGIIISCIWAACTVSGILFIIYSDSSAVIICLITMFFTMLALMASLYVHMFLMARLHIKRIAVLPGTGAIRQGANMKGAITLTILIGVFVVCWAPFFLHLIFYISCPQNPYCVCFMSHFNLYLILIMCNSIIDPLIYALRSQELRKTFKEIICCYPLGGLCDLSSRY

[4] = cells; type: functional, cell-based
[5] = target: T2, Trace amine-associated receptor 1 (Homo sapiens, UniProt Q96RJ0); assay: Fluorescence-based cell-based high throughput dose response assay to identify agonists of the human trace amine associated receptor 1 (TAAR1).; type: functional
T2 sequence (Q96RJ0 whole entry): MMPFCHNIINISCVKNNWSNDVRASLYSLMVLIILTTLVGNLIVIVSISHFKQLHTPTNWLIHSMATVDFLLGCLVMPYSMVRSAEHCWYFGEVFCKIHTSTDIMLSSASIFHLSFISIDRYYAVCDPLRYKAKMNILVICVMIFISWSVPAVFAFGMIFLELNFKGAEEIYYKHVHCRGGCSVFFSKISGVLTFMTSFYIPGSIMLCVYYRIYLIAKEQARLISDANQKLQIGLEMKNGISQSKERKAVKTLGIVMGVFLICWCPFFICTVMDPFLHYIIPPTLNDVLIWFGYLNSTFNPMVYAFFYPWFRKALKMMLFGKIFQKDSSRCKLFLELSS

[6] = cells; type: functional, cell-based; remark: listed apart in the source
[7] = target: T2, Trace amine-associated receptor 1; assay: Counterscreen for agonists of the human trace amine associated receptor 1 (hTAAR1): Fluorescence-based cell-based high throughput dose response assay to identify hTAAR1 agonist that also desensitize TAAR1 receptor response.; type: functional
[8] = system: H9c2; assay: cells; type: functional, cell-based; details: Rattus norvegicus, H9c2, Myocardium;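 note: confirmatory concentration-response retest of ultra-high-throughput screening hits for modulation of myocardial damage; cell death induced by hydrogen peroxide oxidative stress; compound pretreatment for 60 min then peroxide exposure for 2 h; potency is for protecting the cells against peroxide damage rather than for killing them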
[9] = target: 26S proteasome non-ATPase regulatory subunit 14 (Homo sapiens, UniProt O00487); assay: inhibition of proteasome subunit RPN11 – biochemical, fluorescence polarization, uHTS hits, confirmation (AID 602368); type: functional
Sequence of 26S proteasome non-ATPase regulatory subunit 14 (O00487 whole entry): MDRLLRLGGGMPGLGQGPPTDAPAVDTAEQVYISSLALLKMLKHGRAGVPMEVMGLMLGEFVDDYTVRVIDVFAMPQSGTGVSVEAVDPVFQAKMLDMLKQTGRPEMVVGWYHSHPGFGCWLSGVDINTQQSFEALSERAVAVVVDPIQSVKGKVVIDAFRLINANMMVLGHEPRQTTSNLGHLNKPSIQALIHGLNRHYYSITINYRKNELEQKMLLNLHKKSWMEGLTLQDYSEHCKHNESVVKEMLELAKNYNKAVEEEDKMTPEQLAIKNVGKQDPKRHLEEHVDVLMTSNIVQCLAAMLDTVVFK

[10] = target: 72 kDa type IV collagenase (Homo sapiens, UniProt P08253); assay: Dose Response validation of uHTS RPN11 inhibitor hits using a MMP-2 Fluorescence assay.; type: functional
Sequence of 72 kDa type IV collagenase (P08253 whole entry): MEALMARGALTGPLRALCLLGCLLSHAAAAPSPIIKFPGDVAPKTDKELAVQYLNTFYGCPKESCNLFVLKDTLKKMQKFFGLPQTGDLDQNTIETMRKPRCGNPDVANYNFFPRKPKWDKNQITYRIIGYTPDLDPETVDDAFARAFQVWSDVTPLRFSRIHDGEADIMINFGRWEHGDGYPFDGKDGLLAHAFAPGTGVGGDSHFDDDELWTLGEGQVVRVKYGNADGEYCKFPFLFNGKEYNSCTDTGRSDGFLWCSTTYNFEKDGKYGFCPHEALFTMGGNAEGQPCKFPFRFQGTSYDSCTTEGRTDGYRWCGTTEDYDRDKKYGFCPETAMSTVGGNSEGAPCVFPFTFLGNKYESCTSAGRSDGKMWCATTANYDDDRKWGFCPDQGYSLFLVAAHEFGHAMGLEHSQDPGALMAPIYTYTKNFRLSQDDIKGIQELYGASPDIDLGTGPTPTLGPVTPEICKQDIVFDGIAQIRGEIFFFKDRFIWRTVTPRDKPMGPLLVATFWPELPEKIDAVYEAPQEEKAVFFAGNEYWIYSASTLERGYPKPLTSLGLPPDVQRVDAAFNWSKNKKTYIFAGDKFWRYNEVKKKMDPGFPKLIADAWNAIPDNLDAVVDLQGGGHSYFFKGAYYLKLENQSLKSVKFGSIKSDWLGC

[11] = target: Prothrombin (Bos taurus, UniProt P00735); assay: thrombin protease inhibitors – biochemical, fluorescence polarization, uHTS hits, dose response (AID 602369); type: functional
[12] = target: T3, Mannose-6-phosphate isomerase (Homo sapiens, UniProt P34949); assay: MPI inhibition at elevated mannose 6-phosphate – biochemical, fluorescence intensity, high mannose 6-phosphate, primary screen (AID 1220)
T3 sequence (P34949 whole entry): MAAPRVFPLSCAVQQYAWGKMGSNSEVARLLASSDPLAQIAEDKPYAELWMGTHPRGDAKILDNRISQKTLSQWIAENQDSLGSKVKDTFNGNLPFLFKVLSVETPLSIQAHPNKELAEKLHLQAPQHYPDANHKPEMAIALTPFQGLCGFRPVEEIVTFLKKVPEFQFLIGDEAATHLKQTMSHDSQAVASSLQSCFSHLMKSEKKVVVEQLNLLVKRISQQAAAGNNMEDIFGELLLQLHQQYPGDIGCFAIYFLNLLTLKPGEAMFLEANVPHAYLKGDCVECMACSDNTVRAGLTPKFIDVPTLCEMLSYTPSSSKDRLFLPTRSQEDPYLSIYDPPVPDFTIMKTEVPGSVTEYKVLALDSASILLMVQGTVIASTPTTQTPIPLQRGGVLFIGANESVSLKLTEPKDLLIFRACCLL

[13] = target: T4, Endoribonuclease toxin MazF (Escherichia coli K-12, UniProt P0AE70); assay: substrate-only fluorescence increase artefacts – biochemical, single-stranded RNase substrate, counter-screen for MazEF activator project, dose response (AID 588502); type: functional
T4 sequence (P0AE70 whole entry): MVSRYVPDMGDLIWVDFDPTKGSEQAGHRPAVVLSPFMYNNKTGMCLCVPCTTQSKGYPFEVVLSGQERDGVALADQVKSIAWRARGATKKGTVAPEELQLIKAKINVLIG

[14] = target: T4, Endoribonuclease toxin MazF; assay: activation of MazEF endoribonuclease cleavage – biochemical, fluorescence, single-stranded RNA substrate, uHTS hits, dose response (AID 588481); type: functional
[15] = target: T5, Aminopeptidase N (Plasmodium falciparum FcB1/Columbia, UniProt O96935); assay: malaria alanyl aminopeptidase activity blockers – biochemical, fluorogenic H-Leu-NHMec substrate, 1536-well (AID 1445); design: species or system Plasmodium falciparum 3D7, 3D7
T5 sequence (O96935 whole entry): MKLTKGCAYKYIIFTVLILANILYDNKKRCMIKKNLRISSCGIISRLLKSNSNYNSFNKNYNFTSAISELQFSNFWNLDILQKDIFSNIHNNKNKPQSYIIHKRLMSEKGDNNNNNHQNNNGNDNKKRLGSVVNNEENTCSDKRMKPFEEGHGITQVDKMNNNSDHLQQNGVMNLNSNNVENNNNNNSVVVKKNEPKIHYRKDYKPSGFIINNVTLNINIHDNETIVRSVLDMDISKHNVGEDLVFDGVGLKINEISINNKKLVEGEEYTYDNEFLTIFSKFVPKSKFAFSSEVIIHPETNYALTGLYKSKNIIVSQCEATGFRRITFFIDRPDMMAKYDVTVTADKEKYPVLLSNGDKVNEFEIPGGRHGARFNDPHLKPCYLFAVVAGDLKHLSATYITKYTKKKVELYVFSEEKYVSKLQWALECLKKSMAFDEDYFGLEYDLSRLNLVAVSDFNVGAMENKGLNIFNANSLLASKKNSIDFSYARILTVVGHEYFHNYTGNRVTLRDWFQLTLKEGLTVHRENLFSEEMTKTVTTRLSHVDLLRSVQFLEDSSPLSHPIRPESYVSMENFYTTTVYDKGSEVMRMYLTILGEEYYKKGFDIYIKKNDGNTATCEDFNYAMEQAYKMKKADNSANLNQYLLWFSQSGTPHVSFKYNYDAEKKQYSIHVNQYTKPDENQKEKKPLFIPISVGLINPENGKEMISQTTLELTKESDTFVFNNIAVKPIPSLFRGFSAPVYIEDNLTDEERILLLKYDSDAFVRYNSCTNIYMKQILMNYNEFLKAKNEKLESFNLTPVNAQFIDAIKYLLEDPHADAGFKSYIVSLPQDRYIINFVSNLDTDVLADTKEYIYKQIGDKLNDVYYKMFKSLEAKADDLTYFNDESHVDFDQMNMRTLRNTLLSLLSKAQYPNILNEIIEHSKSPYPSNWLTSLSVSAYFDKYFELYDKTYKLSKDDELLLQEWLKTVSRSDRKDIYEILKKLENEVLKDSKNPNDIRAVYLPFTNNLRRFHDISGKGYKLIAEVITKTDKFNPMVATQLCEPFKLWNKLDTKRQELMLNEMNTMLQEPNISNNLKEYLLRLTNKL

[16] = fluconazole-exposed Candida albicans growth modulators – fluorescence, retest, confirmation (AID 2467); type: functional, cell-based
[17] = system: INS1; assay: INS-1E survival protection against cytokine death – cell-based, luminescence, retest, dose response (AID 449756); type: functional; details: Rattus norvegicus;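 note: cell death triggered by IL-1 beta plus TNF-alpha plus IFN-gamma mixture; protective hits raise ATP signal compared with cytokine alone wells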
[18] = NIH-3T3 fibroblast cytotoxicity, dose response, cytotoxicity control, cell-based, fluorescence, Alamar Blue, secondary assay (AID 2327); type: functional;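 note: NIH-3T3 mouse fibroblasts cultured with fluconazole at 8 µg/mL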
[19] = target: T6, Microphthalmia-associated transcription factor (Homo sapiens, UniProt O75030); assay: reducers of TRPM1 reporter luminescence, concentration series – cell-based, SK-MEL-5, cherry-picked, set 3, MITF inhibitor project, dose response (AID 493073); type: functional;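 note: SK-MEL-5 melanoma cells with luciferase driven by the MITF target TRPM1 promoter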
T6 sequence (O75030 whole entry): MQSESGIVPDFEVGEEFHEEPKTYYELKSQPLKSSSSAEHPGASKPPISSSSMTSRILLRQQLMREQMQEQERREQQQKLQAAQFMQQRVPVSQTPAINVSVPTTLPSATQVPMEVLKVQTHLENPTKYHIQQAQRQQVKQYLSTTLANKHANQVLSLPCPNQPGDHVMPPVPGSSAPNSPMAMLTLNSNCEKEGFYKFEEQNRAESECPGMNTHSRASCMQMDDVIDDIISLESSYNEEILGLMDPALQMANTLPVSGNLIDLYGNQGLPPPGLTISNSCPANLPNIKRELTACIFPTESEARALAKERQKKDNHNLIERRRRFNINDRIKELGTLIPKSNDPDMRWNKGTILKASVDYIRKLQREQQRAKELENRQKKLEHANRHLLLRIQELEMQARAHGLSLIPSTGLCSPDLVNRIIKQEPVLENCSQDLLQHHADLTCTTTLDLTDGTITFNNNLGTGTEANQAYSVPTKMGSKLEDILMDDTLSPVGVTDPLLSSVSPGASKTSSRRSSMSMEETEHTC

[20] = target: T7, Protein skinhead-1 (Caenorhabditis elegans, UniProt P34707); type: functional
T7 sequence (P34707 whole entry): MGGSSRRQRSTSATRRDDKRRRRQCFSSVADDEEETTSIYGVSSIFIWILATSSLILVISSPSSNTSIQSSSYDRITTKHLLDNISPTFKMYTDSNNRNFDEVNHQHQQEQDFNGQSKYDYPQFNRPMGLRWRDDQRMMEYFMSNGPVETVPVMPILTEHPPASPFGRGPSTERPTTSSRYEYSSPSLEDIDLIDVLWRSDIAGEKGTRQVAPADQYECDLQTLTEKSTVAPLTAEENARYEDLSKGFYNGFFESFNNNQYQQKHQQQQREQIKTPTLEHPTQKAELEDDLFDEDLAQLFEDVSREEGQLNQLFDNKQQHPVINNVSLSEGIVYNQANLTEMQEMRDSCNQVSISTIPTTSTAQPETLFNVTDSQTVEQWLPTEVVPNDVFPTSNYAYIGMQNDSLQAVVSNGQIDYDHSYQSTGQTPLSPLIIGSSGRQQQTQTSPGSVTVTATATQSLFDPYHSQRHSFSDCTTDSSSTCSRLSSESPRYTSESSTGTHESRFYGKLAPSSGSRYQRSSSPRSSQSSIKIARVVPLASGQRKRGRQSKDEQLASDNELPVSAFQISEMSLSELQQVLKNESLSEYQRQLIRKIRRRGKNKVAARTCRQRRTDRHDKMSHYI

CN(C)c1ccc(Sc2ccc3nc(N)nc(N)c3c2)cc1
CC50 [1]: 100 µM (active)
IC50 [2]: 50.2 µM (active)

Cc1cccc(NC(=S)NC(=O)C(c2ccccc2)c2ccccc2)n1
EC50 [3]: > 89.2 µM (inactive)

O=C(Cc1nnc(NC(=O)Nc2ccccc2)s1)Nc1ccccc1
EC50 [4]: > 29.9 µM (inactive)
EC50 [5]: > 0.0015 µM (active)
IC50 [6]: > 29.9 µM (inactive)
IC50 [7]: > 1.11 µM (active)

COc1ccc(-c2cc(NC(C)=O)c3ncc(-c4ccc(OC)c(OC)c4)n3c2)cc1OC
IC50 [8]: > 79 µM (inactive)
EC50 [3]: > 89.2 µM (inactive)

CCOc1ccc(C(=O)CCC(=O)N2CCN(c3ncccn3)CC2)cc1
IC50 [9]: 38.6 µM (active)
IC50 [10]: 83.5 µM (active)
IC50 [11]: 34.3 µM (active)

COCc1n[nH]c2c1C(c1cc(OC)c(O)c(OC)c1)C(C#N)=C(N)O2 (centres undefined)
IC50 [12]: > 50 µM (not active)
EC50 [13]: > 99 µM (inactive)
EC50 [14]: > 99 µM (inactive)

CN(CCc1ccccc1)Cc1c[nH]c2ccccc12
EC50 [4]: > 29.9 µM (inactive)
EC50 [5]: 1.05 µM (active)
IC50 [6]: > 29.9 µM (inactive)
IC50 [7]: 13.2 µM (inactive)

O=C(c1ccc(COc2ccc(Br)cc2)o1)N1N=C(C(F)F)CC1(O)C(F)F (centres undefined)
EC50 [3]: > 89.2 µM (inactive)

O=c1nc(N2CCCCC2)nc(Nc2ccccc2)[nH]1
EC50 [5]: 3.44 µM (active)
IC50 [15]: 51.9 µM (active)
IC50 [7]: 4.65 µM (active)

Cc1ccccc1C(=O)/C=C1/SCC(=O)N1C
IC50 [9]: 18.9 µM (active)
IC50 [10]: > 100 µM (inactive)
IC50 [11]: 37.3 µM (active)

C1COCCO1.Cc1cc(C)c2nc(Nc3nc(O)cc(-c4ccccc4)n3)nc(C)c2c1
EC50 [3]: > 89.2 µM (inactive)

Cc1cccnc1C(c1ccc(F)cc1)N(C)C(=O)C1CCN(CCOc2ccc(Cl)cc2Cl)CC1 (centres undefined)
EC50 [3]: > 89.2 µM (inactive)

CC1CCC(C(C)C)C(OC(=O)C[n+]2cc(-c3ccc(Cl)cc3)n3c2CCCCC3)C1 (centres undefined)
EC50 [16]: 0.459 µM (active)
AC50 [17]: 4.91 µM (active)
EC50 [18]: > 160 µM (inactive)
AC50 [19]: 6.97 µM (active)
EC50 [3]: > 9.91 µM (active)

COc1ccc(-c2ccc(/C=C3/C(=N)N4C(C)=CSC4=NC3=O)o2)c([N+](=O)[O-])c1
EC50 [13]: 29 µM (inactive)
EC50 [14]: > 99 µM (inactive)
IC50 [20]: > 100 µM (inactive)

CC(C)Oc1ccc(/C=C(\NC(=O)/C=C/c2ccco2)C(=O)NCCc2nc3ccccc3[nH]2)cc1
IC50 [9]: 57.5 µM (active)
IC50 [10]: > 100 µM (inactive)
IC50 [11]: 55.6 µM (active)
